This is an account of results in PMC10135378, “Synthesis of Novel N-Heterocyclic Carbene-Ruthenium (II) Complexes, “Precious” Tools with Antibacterial, Anticancer and Antioxidant Properties” (Antibiotics, 2023).

Usually IC50 stands for the concentration at which inhibition is half-maximal. A lower IC50 goes with greater potency.

Assay [1] in a line: DPPH radical scavenging assay. The settings on record: 30 min, room temperature, 517 nm. On the procedure: Generally, the DPPH radical is able to accept hydrogen radicals or an electron, turning into a stable molecule. The interaction with Ru-NHC complexes induces the reduction of DPPH radical intensity measured at 517 nm, due to the conversion of the purple DPPH radical into its corresponding yellow hydrazine form.
The radical scavenging properties of Ru-NHC complexes on the 1,1-diphenyl-2-picryl-hydrazil (DPPH) radical were evaluated as described by Fazio et al., with minor corrections. Then, 20 μL of each Ru complex, properly dissolved in DMSO, were mixed with methanol DPPH 0.1 mM (180 μL) in a 48-well plate obtaining […] different concentrations (10, 50, 100, 200 and 300 µg/mL). Next, 20 μL of DMSO in 180 μL of DPPH methanol solution was diluted as the control. The mixture was vigorously shaken and incubated (room temperature, 30 min, in the dark). The scavenging activity was measured at 517 nm, using a microplate reader. DPPH radical scavenging was expressed as inhibition percentages (%IDPPH) for the Ru complexes compared to the initial concentration of DPPH (control) according to the formula: %IDPPH=A0−A/A0×100 where A0 is the absorbance at 517 nm of the control reaction and A is the absorbance at 517 nm in the presence of samples.
The obtained IDPPH percentages allowed the IC50 values determination, using GraphPad Prism 9 software (GraphPad Inc., San Diego, CA, USA). Trolox was employed as a positive control.
(DPPH is a stable violet radical that fades when it is reduced.)

Assay [2] has as its system Escherichia coli (ATCC 25922). Nature of the assay: MIC/MBC broth dilution, E. coli. The following applies: broth dilution, 37 °C, 18 h. The assay is classed as cell-based. Here is the method:
One Gram-negative (Escherichia coli (ATCC® 25922TM)) and two Gram-positive bacterial strains (Enterococcus faecalis (ATCC® 19433TM) and Staphylococcus aureus (ATCC® 23235TM)] were used for MIC and MBC values determination, according to CLSI guidelines. MIC represents the lowest concentration of compound inhibiting the visible microbial growth and expressed as μg/mL; MBC is the lowest concentration able to kill the bacteria. Both determinations were performed by the broth dilution method. Bacteria were grown overnight in LB medium (2%), then diluted to a density of […] colony forming units (CFUs) per mL, plated in sterile 96-well microplates, obtaining about 10^5 cells/ well. Increasing concentrations of the Ru-NHC complexes (1, 10, 25, 50, 70, 100 µg/mL) were used. After incubation at 37 °C for 18 h (overnight), bacterial growth was checked at a wavelength of 600 nm using a Multiskan spectrophotometer (model Multiskan Ex Microplate; Thermo Scientific, Nyon, Switzerland) and MIC or MBC values were determined, comparing cell density with a positive control (bacterial cells grown in LB medium were added with only the vehicle, DMSO). Each experiment was carried out five times, in triplicate. Ampicillin (Sigma Aldrich A9393) was used as the control for strain sensitivity.
In general terms: Dilution methods test growth across graded concentrations, often in twofold steps.

Assay [3] is described as follows: ABTS radical scavenging assay. The settings on record: for IC50: 5 min, room temperature, 730 nm. An excerpt:
To further analyze the Ru-NHC complexes antiradical potential, we examined their capability to interfere with the ABTS radical cation, a well-known protonated radical with a characteristic maximal absorbance at 730 nm, which diminishes with the scavenging of the radical proton. The assay measures radical scavenging by the electron donation. The outcomes in terms of ABTS% scavenging activity are reported in Figure 7 and IC50 values of Ru-NHC complexes, together with the standard Trolox, on ABTS radical are summarized in Table 3 and Table S3.
The radical scavenging properties of the Ru-NHC complexes on a 2,2′-azino-bis(3-ethylbenzothiazoline-6-sulfonate) radical cation (ABTS^•+) were calculated as described by Fazio et al., with few adjustments. Briefly, 2 mM ABTS and 70 mM potassium persulfate water solutions were mixed and incubated to obtain ABTS^•+ radical stock solution (16 h, room temperature, in the dark). ABTS solution was diluted in ethanol to obtain an absorbance of 0.70 ± 0.02 at 730 nm, prior to use. Then, 2 μL of each Ru-NHC complex at different concentrations, properly dissolved in DMSO, were mixed with 198 μL of the ABTS^•+ solution in a 48-well plate obtaining the following concentrations: 0.1, 1, 10, 50, and 100 µg/mL. The solutions were vigorously shaken and incubated (5 min, room temperature, in the dark). The ABTS scavenging activity was determined at 730 nm, using a microplate reader. The control was prepared mixing 2 μL of DMSO with 198 μL of the ABTS^•+ solution. The ABTS radical scavenging was expressed as inhibition percentages (%IABTS) of each complex compared to the control, according to the formula: %IABTS=A0−A/A0×100 where A0 is the absorbance at 730 nm of the control reaction and A is the absorbance at 730 nm in the presence of samples.
IC50 values for the Ru complexes were calculated from the %IABTS using GraphPad Prism 9 software (GraphPad Inc., San Diego, CA, USA). Trolox was employed as the positive control.

The target of another assay is T1, human topoisomerase II (Homo sapiens, UniProt P11388).
T1 construct: purchased TopoGEN, Port Orange, FL
The assay is described as follows: hTopo II decatenation assay. The settings on record: 10 and 50 µM, 2 h at 37 °C, kDNA substrate. The class given is biochemical. Here is the method: In Figure 4, only the results obtained at 50 μM concentration are reported (the same result was obtained at 10 μM) and as visible; under RANHC-V and -VI exposure, two bands related to the decatenation products at the bottom of the gel were detected (Figure 4, lanes 5 and 6), similarly to the CTRL reaction (Figure 4, lane 4).
Similarly, hTopoII decatenation assays were carried out incubating the kinetoplast DNA (kDNA) substrate with the hTopoII (TopoGEN, Port Orange, FL) and compounds RANHC-V and -VI or DMSO (CTRL) following the manufacturer’s procedures (TopoGEN, Port Orange, FL, USA), with some changes.
Figure 4 Human topoisomerase II decatenation assay. hTopo II was incubated with the vehicle alone (CTRL) or with the tested complexes RANHC-V and -VI at 50 µM for 2 h at 37 °C, using the kinetoplast DNA (kDNA) as the substrate. 1, linear DNA marker; 2, decatenated DNA marker; 3, kinetoplast DNA; 4, CTRL (DMSO); 5 and 6, Ru-NHC complexes RANHC-V and -VI (50 µM), respectively. The image is representative of three separate experiments.

T1 sequence (P11388 whole entry): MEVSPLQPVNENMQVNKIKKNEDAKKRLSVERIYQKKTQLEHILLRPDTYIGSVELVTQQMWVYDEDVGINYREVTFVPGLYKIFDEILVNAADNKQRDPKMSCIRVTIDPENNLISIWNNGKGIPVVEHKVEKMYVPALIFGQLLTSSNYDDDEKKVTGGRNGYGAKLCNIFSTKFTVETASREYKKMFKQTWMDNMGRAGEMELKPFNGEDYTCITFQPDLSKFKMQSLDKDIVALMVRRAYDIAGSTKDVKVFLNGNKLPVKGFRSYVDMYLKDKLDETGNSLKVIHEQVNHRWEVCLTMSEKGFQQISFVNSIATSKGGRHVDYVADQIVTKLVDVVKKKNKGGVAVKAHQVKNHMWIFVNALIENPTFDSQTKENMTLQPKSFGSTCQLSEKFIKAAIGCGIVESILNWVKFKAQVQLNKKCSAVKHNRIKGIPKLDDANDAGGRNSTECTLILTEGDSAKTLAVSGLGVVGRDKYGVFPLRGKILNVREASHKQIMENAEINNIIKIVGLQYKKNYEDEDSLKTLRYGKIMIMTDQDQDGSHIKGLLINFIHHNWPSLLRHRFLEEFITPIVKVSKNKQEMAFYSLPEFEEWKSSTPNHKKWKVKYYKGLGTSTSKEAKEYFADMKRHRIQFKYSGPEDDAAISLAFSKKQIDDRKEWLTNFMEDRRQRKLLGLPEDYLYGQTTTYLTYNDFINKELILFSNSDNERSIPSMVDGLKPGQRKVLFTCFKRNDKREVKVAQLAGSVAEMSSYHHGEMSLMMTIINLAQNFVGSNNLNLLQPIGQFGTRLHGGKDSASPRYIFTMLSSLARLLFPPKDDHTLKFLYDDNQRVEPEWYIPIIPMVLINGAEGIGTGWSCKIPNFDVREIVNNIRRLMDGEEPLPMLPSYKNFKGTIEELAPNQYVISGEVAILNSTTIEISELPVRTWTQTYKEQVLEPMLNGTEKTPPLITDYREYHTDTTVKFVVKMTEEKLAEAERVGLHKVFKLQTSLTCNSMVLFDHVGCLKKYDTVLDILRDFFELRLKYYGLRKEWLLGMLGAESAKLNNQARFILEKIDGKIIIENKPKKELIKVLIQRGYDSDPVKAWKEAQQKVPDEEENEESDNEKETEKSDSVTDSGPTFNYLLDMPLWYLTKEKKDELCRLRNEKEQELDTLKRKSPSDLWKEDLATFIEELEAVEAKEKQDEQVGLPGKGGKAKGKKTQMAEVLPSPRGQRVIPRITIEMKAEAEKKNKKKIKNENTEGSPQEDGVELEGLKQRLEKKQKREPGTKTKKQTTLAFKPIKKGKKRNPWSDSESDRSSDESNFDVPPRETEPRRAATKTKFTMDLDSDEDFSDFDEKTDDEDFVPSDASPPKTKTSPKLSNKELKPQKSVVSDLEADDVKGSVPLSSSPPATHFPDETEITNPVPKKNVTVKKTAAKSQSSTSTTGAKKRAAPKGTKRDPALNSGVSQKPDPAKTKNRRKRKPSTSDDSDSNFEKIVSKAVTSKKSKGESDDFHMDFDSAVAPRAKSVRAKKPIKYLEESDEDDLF

In the case of `CN1C=CN2CC(c3ccccc3)[O+](C)[Ru]([Cl])=[C]12.Cc1ccc(C(C)C)cc1.F[P-](F)(F)(F)(F)F` (stereo not drawn) [RANHC-III], the IC50 amounted to 44.2 ± 1.2 µM in assay [1] and 5.53 ± 1.1 µM in assay [3]. For the same molecule, the “M.I.C. E. coli” value in assay [2] was 25 µg/mL. For the same molecule, in assay [3] (IC50 ratio to Trolox), the “ABTS IC50 fold lower than that of Trolox” value was “about 17 fold”.
Consider `COC(Cn1ccn(C)[c]1=[Ru]([I])[I])c1ccccc1.Cc1ccc(C(C)C)cc1` (stereo not drawn) [RANHC-II], for which the IC50 in assay [1] turned out to be 214.8 ± 1.1 µM; in assay [3] it was 16.1 ± 0.7 µM. The “M.I.C. E. coli” value in assay [2] is 50 µg/mL.
The corresponding values for `COC(Cn1ccn(C)[c]1=[Ru]1[O]C(=O)C(=O)[O]1)c1ccccc1.Cc1ccc(C(C)C)cc1` (stereo not drawn) [RANHC-IV] are 512.3 ± 0.8 µM, 8.57 ± 1.1 µM and 50 µg/mL.
The corresponding values for `COC(Cn1ccn(C)[c]1=[Ru]([Cl])[Cl])c1ccccc1.Cc1ccc(C(C)C)cc1` (stereo not drawn) [RANHC-I] are 369.6 ± 1.1 µM, 13.5 ± 0.7 µM and 50 µg/mL.
Consider `COC(Cn1[c](=[Ru]([Cl])[Cl])n(C)c2ccccc21)c1ccccc1.Cc1ccc(C(C)C)cc1` (stereo not drawn) [RANHC-VI], for which the IC50 came to 161.6 ± 1 µM in assay [1] and 17.2 ± 1.1 µM in assay [3]. Further, the “inhibition of hTopo II activity” value on human topoisomerase II is recorded as “absence of any inhibitory activity”. Besides, the “M.I.C. E. coli” value in assay [2] turned out to be 25 µg/mL.
The corresponding values for `COC(Cn1c(Cl)c(Cl)n(C)[c]1=[Ru]([Cl])[Cl])c1ccccc1.Cc1ccc(C(C)C)cc1` (stereo not drawn) [RANHC-V] are 246.2 ± 1.2 µM, 11.4 ± 0.8 µM, “absence of any inhibitory activity” and 50 µg/mL.
